According to US9604933B2, “Pyrazolochalcones as potential anticancer agents” (COUNCIL OF SCIENTIFIC AND INDUSTRIAL RESEARCH, priority 2013, dated 2017):
Where two headings read alike, the source gives them in different places.

Experiments:
[1] = system: K-562; test: NCI SRB cytotoxicity, leukemia K-562; assay type: cell-based; conditions: Homo sapiens, K562, 48 h exposure
Procedure: (§1) The pyrazolochalcones (7e, 8e, 10e, 11e, 12e, 13e and 8f) have been tested against fifty nine human tumor cell lines derived from nine cancer types (leukemia, non-small cell lung cancer, colon cancer, CNS cancer, melanoma, ovarian cancer, renal cancer, prostate cancer and breast cancer) as per the NCI protocol. For each compound, dose response curves for individual cell lines have been measured at a minimum of five concentrations at 10 fold dilutions. A protocol of 48 h continuous drug exposure has been used, and a sulforhodamine B (SRB) protein assay has been used to estimate cell viability or growth. The concentration for 50% cell growth inhibition (GI50), 50% cell death (LC50, 50% growth) and total cell growth inhibition (TGI, 0% growth) values were tabulated (Table-1). DMSO was used as control to calculate the values of GI50, LC50 and TGI. The compounds 7e, 8e, 10e, 11e, 12e, 13e and 8f has been evaluated for their in vitro cytotoxicity in […] cell lines from nine human cancer types of leukemia (K-562, SR), non-small cell lung (Hop-62, NCI-H226, NCI-H522), colon (HCT-116, HCT-15, HCC-2998), CNS (SF-539), melanoma (SK-MEL-5, UACC-62, M14), ovarian (IGROV1), renal (A498), prostate (PC3) and breast (BT-549, MDA-MB-435, HS578T) origin. The results are expressed as percent of cell growth determined relative to that of untreated control cells (Table 2).

[2] = system: MOLT-4; test: NCI SRB cytotoxicity, leukemia MOLT-4; assay type: cell-based; conditions: Homo sapiens, 48 h exposure
Procedure: as §1

[3] = system: SR; test: NCI SRB cytotoxicity, leukemia SR; assay type: cell-based; conditions: Homo sapiens, 48 h exposure
Procedure: as §1

[4] = system: NCI-H226; test: NCI SRB cytotoxicity, non-small cell lung NCI-H226; assay type: cell-based; conditions: Homo sapiens, 48 h exposure
Procedure: as §1

[5] = system: NCI-H23; test: NCI SRB cytotoxicity, non-small cell lung NCI-H23; assay type: cell-based; conditions: Homo sapiens, 48 h exposure
Procedure: as §1

[6] = system: NCIH322M; test: NCI SRB cytotoxicity, non-small cell lung NCIH322M; assay type: cell-based; conditions: Homo sapiens, NCI-H322M, 48 h exposure
Procedure: as §1

[7] = system: NCI-H522; test: NCI SRB cytotoxicity, non-small cell lung NCI-H522; assay type: cell-based; conditions: Homo sapiens, 48 h exposure
Procedure: as §1

[8] = system: COLO-205; test: NCI SRB cytotoxicity, colon COLO-205; assay type: cell-based; conditions: Homo sapiens, 48 h exposure
Procedure: as §1

[9] = system: HCC-2998; test: NCI SRB cytotoxicity, colon HCC-2998; assay type: cell-based; conditions: Homo sapiens, 48 h exposure
Procedure: as §1

[10] = system: HT29; test: NCI SRB cytotoxicity, colon HT29; assay type: cell-based; conditions: Homo sapiens, HT-29, 48 h exposure
Procedure: as §1

[11] = system: KM12; test: NCI SRB cytotoxicity, colon KM12; assay type: cell-based; conditions: Homo sapiens, 48 h exposure
Procedure: as §1

[12] = system: SW-620; test: NCI SRB cytotoxicity, colon SW-620; assay type: cell-based; conditions: Homo sapiens, 48 h exposure
Procedure: as §1

[13] = system: SNB-19; test: NCI SRB cytotoxicity, CNS SNB-19; assay type: cell-based; conditions: Homo sapiens, 48 h exposure
Procedure: as §1

[14] = system: LOX IMVI; test: NCI SRB cytotoxicity, melanoma LOX IMVI; assay type: cell-based; conditions: Homo sapiens, 48 h exposure
Procedure: as §1

[15] = system: M14; test: NCI SRB cytotoxicity, melanoma M14; assay type: cell-based; conditions: Homo sapiens, 48 h exposure
Procedure: as §1

[16] = system: SK-MEL-2; test: NCI SRB cytotoxicity, melanoma SK-MEL-2; assay type: cell-based; conditions: Homo sapiens, 48 h exposure
Procedure: as §1

[17] = system: SK-MEL-28; test: NCI SRB cytotoxicity, melanoma SK-MEL-28; assay type: cell-based; conditions: Homo sapiens, 48 h exposure
Procedure: as §1

[18] = system: UACC-62; test: NCI SRB cytotoxicity, melanoma UACC-62; assay type: cell-based; conditions: Homo sapiens, 48 h exposure
Procedure: as §1

[19] = system: IGROV1; test: NCI SRB cytotoxicity, ovarian IGROV1; assay type: cell-based; conditions: Homo sapiens, IGROV-1, 48 h exposure
Procedure: as §1

[20] = system: OVCAR-5; test: NCI SRB cytotoxicity, ovarian OVCAR-5; assay type: cell-based; conditions: Homo sapiens, 48 h exposure
Procedure: as §1

[21] = system: NCI/ADR-RES; test: NCI SRB cytotoxicity, ovarian NCI/ADR-RES; assay type: cell-based; conditions: Homo sapiens, 48 h exposure
Procedure: as §1

[22] = system: SK-OV-3; test: NCI SRB cytotoxicity, ovarian SK-OV-3; assay type: cell-based; conditions: Homo sapiens, 48 h exposure
Procedure: as §1

[23] = system: 786-0; test: NCI SRB cytotoxicity, renal 786-0; assay type: cell-based; conditions: Homo sapiens, 48 h exposure
Procedure: as §1

[24] = system: A498; test: NCI SRB cytotoxicity, renal A498; assay type: cell-based; conditions: Homo sapiens, 48 h exposure
Procedure: as §1

[25] = system: CAKI-1; test: NCI SRB cytotoxicity, renal CAKI-1; assay type: cell-based; conditions: Homo sapiens, 48 h exposure
Procedure: as §1

[26] = system: PC-3; test: NCI SRB cytotoxicity, prostate PC-3; assay type: cell-based; conditions: Homo sapiens, 48 h exposure
Procedure: as §1

[27] = system: MCF7; test: NCI SRB cytotoxicity, breast MCF7; assay type: cell-based; conditions: Homo sapiens, 48 h exposure
Procedure: as §1

[28] = system: MDA-MB-231/ATCC; test: NCI SRB cytotoxicity, breast MDA-MB-231/ATCC; assay type: cell-based; conditions: Homo sapiens, 48 h exposure
Procedure: as §1

[29] = system: HS 578T; test: NCI SRB cytotoxicity, breast HS 578T; assay type: cell-based; conditions: Homo sapiens, 48 h exposure
Procedure: as §1

[30] = system: Leukemia; test: NCI SRB cytotoxicity, leukemia panel average; assay type: cell-based, human; conditions: average of cell lines
Procedure: as §1
(§2) Each cancer type represents the average of six to eight different cancer cell lines.

[31] = system: Non-small cell lung; test: NCI SRB cytotoxicity, non-small cell lung panel average; assay type: cell-based, human; conditions: average of cell lines
Procedure: as §1, §2

[32] = system: Colon; test: NCI SRB cytotoxicity, colon panel average; assay type: cell-based, human; conditions: average of cell lines
Procedure: as §1, §2

[33] = system: CNS; test: NCI SRB cytotoxicity, CNS panel average; assay type: cell-based, human; conditions: average of cell lines
Procedure: as §1, §2

[34] = system: Ovarian; test: NCI SRB cytotoxicity, ovarian panel average; assay type: cell-based, human; conditions: average of cell lines
Procedure: as §1, §2

[35] = system: human tumor cell lines; test: NCI SRB cytotoxicity, all fifty nine human tumor cell lines; assay type: cell-based; parameters: Log10 TGI mean graph midpoint (MG_MID): unit not given here; conditions: for GI50: Homo sapiens
Procedure: as §1
The mean graph midpoint values of Log10 TGI and Log10 LC50 as well as Log10 GI50 for compounds 7e, 8e, 10e, 11e, 12e, 13e and 8f is listed in Table-3. […] The mean graph mid points of Log10 TGI and Log10, LC50 have shown similar pattern to the log10 GI50 mean graph mid points.

[36] = Homo sapiens, read-out: Log10 LC50 (concentration in mol/L causing 50% cell death) (converted)

SMILES: COc1cc(-c2cc(/C=C/C(=O)c3ccc(F)c(F)c3)[nH]n2)cc(OC)c1OC [13e, (E)-1-(3,4-difluorophenyl)-3-(3-(3,4,5-trimethoxyphenyl)-1H-pyrazol-5-yl)prop-2-en-1-one]
- GI50 [1]: 3.31 µM
- GI50 [2]: 2.72 µM
- GI50 [3]: 2.92 µM
- GI50 [4]: 3.72 µM
- GI50 [5]: 2.6 µM
- GI50 [6]: 3.37 µM
- GI50 [7]: 1.57 µM
- GI50 [8]: 1.69 µM
- GI50 [9]: 3.69 µM
- GI50 [10]: 2.62 µM
- GI50 [11]: 3.06 µM
- GI50 [12]: 3.42 µM
- GI50 [13]: 3.64 µM
- GI50 [14]: 3.18 µM
- GI50 [15]: 2.7 µM
- GI50 [16]: 2.3 µM
- GI50 [17]: 5.31 µM
- GI50 [18]: 2.38 µM
- GI50 [19]: 3.62 µM
- GI50 [20]: 4.48 µM
- GI50 [21]: 3.46 µM
- GI50 [22]: 3.53 µM
- GI50 [23]: 3.35 µM
- GI50 [24]: 2.11 µM
- GI50 [25]: 2.98 µM
- GI50 [26]: 1.66 µM
- GI50 [27]: 3.2 µM
- GI50 [28]: 1.64 µM
- GI50 [29]: 3.58 µM
- CC50 [30, 36]: 0.0001 mol/L
- Log10 GI50 (concentration in mol/L causing 50% growth inhibition) [30]: −5.57 mol/L
- Log10 TGI (concentration in mol/L causing total growth inhibition (0% growth)) [30]: −4.76 mol/L
- LC50 [31, 36]: 87.1 µM
- Log10 GI50 (concentration in mol/L causing 50% growth inhibition) [31]: −5.54 mol/L
- Log10 TGI (concentration in mol/L causing total growth inhibition (0% growth)) [31]: −4.75 mol/L
- LC50 [32, 36]: 58.9 µM
- Log10 GI50 (concentration in mol/L causing 50% growth inhibition) [32]: −5.52 mol/L
- Log10 TGI (concentration in mol/L causing total growth inhibition) [32]: −4.70 mol/L
- LC50 [33, 36]: 91.2 µM
- Log10 GI50 (concentration in mol/L causing 50% growth inhibition) [33]: −5.47 mol/L
- Log10 TGI (concentration in mol/L causing total growth inhibition (0% growth)) [33]: −4.38 mol/L
- CC50 [34, 36]: 89.1 µM
- Log10 GI50 (concentration in mol/L causing 50% growth inhibition) [34]: −5.5 mol/L
- Log10 TGI (concentration in mol/L causing total growth inhibition (0% growth)) [34]: −4.45 mol/L
- GI50 ([35]; across fifty nine cell lines in nine cell panels, read-out: GI50 value range): 0.18 to 29.2 µM
- GI50 ([35]; against human tumor cell lines, read-out: Log10 GI50 mean graph midpoint (MG_MID) (converted)): 2.82 µM
- cytotoxicity ([35]; against cancer cell lines, in words): significant cytotoxicity
- Log10 TGI mean graph midpoint (MG_MID) ([35]; against human tumor cell lines): −4.74
- LC50 ([35]; against human tumor cell lines, read-out: Log10 LC50 mean graph midpoint (MG_MID) (converted)): 81.3 µM
